The source of these data is patent US6566047B1, “Method for identifying neurite-growth promoting agents” (The Regents of the University of Colorado, priority 1998, dated 2003).

“Also recorded” adds a separate entry of the source.

Usually IC50 stands for the concentration that gives 50% inhibition.

In experiment [1] the test system is 12-LOX. As to conditions: Cho et al., 1991; cited from earlier work.
For experiment [2], the system named is 12-Lox. The experiment in a line: Eicosanoid (HETE) generation in GCPs. In kind it is biochemical, rat. As to the method:
Eicosanoid Assays. Eicosanoid production in GCPs was measured by metabolic labelling from ^14C-AA or ^14C-AA-PC or by mass spectrometric detection. […] To measure Lox activity directly, without PLA2 involvement, ^3H-AA was the substrate of choice. Reactions were stopped by the addition of chloroform/methanol as for the phospholipase assays. Reaction products were extracted as described by Birkle et al., Neuromethods, vol. 7, pp.227-244 (Humana Press, N.J. 1988), spotted on pre-activated si gel 60 TLC plates, and the plates developed in the upper phase of ethyl acetate/isooctane/acetic acid/water (100:60:20:100). AA and HETEs were identified by co-migration with standards. Appropriate bands were counted by liquid scintillation spectrometry.
For mass-spectrometric (MS) identification of HETEs, two different strategies were pursued:
(1) the appropriate bands from non-labelled samples (PC substrate) were scraped from the TLC plate into ether/methanol (9:1) and stored under N2 at −20° C. Authentic 12(S)-HETE, run alongside in the same manner, was used as a standard. Just prior to analysis, samples were passed over an SPE filter to eliminate silica particles, dried under argon, resuspended in 500 μl ethanol, and injected (at 3 μl/min) into a Finnigan LCQ quadrupole ion trap mass spectrometer (Finnigan MAT, San Jose, Calif.) equipped with an electrospray ionization source. All spectra were acquired at a capillary temperature of 80° C., and ion guide voltages were tuned to maximize the abundance of the deprotonated ion species [M-H]^− in negative mode. In order to generate a spectrum, typically 100 single scans were averaged.
(2) For the other strategy (liquid chromatography/tandem MS, LC/MS^2), the reaction substrate consisted of 3.5 μM AA, with the addition of 3.5 μM deuterated AA (AA-D8) plus 1 μCi ^3H-AA to track reaction products by mass and radioactivity, respectively. Reactions were stopped with ice-cold ethanol, the mixtures kept overnight at −20° C. under N2, and the proteins spun out The supernatants were diluted with H2O and loaded onto 1-ml C18 Sep-Pak columns (Varian). After washing with H2O, eicosanoid was eluted with 2 ml methanol. These samples were resolved by reverse-phase HPLC, and the eluted fractions analyzed by tandem MS on-line (MacMillan and Murphy, 1995). Collision-induced decomposition of HETE isomers produced characteristic fragments that were identified at the second MS stage.

For a further experiment, the system named is protein kinase C (PKC). The experiment is described as follows: MARCKS phosphorylation by PKC in isolated GCPs. In kind it is biochemical, rat. Particulars: isolated growth cones. From the text:
FIG. 7A. Thrombin stimulates MARCKS phosphorylation in a 12-LOX-dependent manner. FIG. 7B. 12(S)-HETE stimulates MARCKS phosphorylation by PKC in isolated GCPs. […] Polypeptides were resolved by SDS-PAGE. MARCKS phosphorylation was quantified by phosphorimaging.

In experiment [3] the test system is growth cones in cultures of rat cerebral cortex. The experiment is described as follows: Growth cone collapse assay in cortical neuron culture. It counts as cell-based. As to the method: Neuron Culture. Cerebral cortices were dissected from embryonic day 18 Sprague-Dawley rats, cut into explants of less than 1 mm^3 and cultured on either poly-D-lysine-coated coverglass (Assistent) or poly-D-lvsine-coated tissue culture plastic. After 24 hours in B27 neurobasal medium (NB) supplemented with 10% fetal bovine serum, cultures were switched to serum-free B27/NB. The cultures were incubated at 37° C. in 5% CO2 in air. Sprouting neurons were observed readily on day 1. On day 2 or 3, long neurites were present, and the cultures were used for collapse experiments.
Actin Staining. After experimentation, cultures were fixed by slow infusion of fixative (4% paraformaldehyde in 0.1 M phosphate buffer, pH 7.4) into the culture dishes over 10 min (Pfenninger and Maylié-Pfenninger, J. Cell Biol. 89:53-546 (1981)). Thereafter, the fixative was removed by rinsing three times with phosphate-buffered saline (PBS) containing 1 mM glycine. Cultures were then blocked with PBS/1% bovine serum albumin (BSA) and permeabilized by incubation in 0.02% Triton X-100 for 5 min. After three washes in PBS/BSA, cultures were incubated with Texas-Red-conjugated phalloidin for 30 min. Unbound phalloidin was washed away by two PBS rinses, after which the coverglasses were mounted in Slow-Fade Light on microscope slides. Images were recorded on 35 mm film using a Zeiss Axiophot fluorescence microscope equipped with epiillumination.
Growth Cone Collapse Assay. Prior to repellent factor treatment, some of the day 2-3 explant cultures were pre-incubated (at 37° C.) with inhibitor or vehicle control (dimethylsulfoxide or ethanol) for 30-60 min. Cultures were then challenged with a repellent factor or vehicle control for 1-30 min. In some experiments, live cultures were photographed with a Zeiss IM 35 inverted photo microscope equipped with a stage heater, while in others cultures were fixed (as above) after 7 minutes of repellent factor treatment. Growth cone collapse was assessed quantitatively in aldehyde-fixed cultures by grading the degree of collapse in a large number of randomly selected growth cones.

In experiment [4] the test system is MAT-Lu cells. The experiment in a line: Pseudopod morphometry (pseudopod length assay), MAT-Lu cells. It counts as cell-based, rat. As to the method:
Pseudopod Morphometry. To study the effects of various agents on pseudopods on a short-term basis, we measured pseudopod lengths. Cells plated in 35-mm diameter dishes at low density (1×10^4 per dish) were incubated overnight, tie medium was changed, and the experiments were run four hours later. First, cultures were shifted to serum-free medium, which was replaced one hour later by serum-free medium with or without the various agents (thrombin, AA or HETEs). Care was taken to avoid heat and light inactivation of the eicosanoids. Culture dishes were placed on a Zeiss inverted microscope equipped with a heated stage and viewed with a 16×phase contrast objective lens. Randomly selected fields of the cultures, containing generally about 20 cells each, were recorded, digitized and stored in the computer at the onset of the experiment and at different times thereafter.
In some cases, individual cells were monitored over different periods of time immediately after introduction of the reagent, either by mixing it into the medium or by applying it locally to one end of the cell. Local application was done with a “puffer” system that expels microliter amounts of the desired solution from a micromanipulator-controlled micropipette tip. Cell morphology was recorded, and the captured images were analyzed with a Power Macintosh computer using NIH Image. Cell process length was measured from the center of the nucleus to the end of the process. Characterization of the frequencies of pseudopod lengths, at a fixed time for each of a sequence of concentrations of reagent, utilized a gamma regression model with an inverse quadratic linear predictor (McCullagh and Nelder, Generalized Linear Models 2d ed., pp. 291-292 (Chapman & Hall, 1989), separately fit to each concentration data set. Although no formal goodness-of-fit tests were carried out, in virtually every case there was good visual representation of the pattern of response (see FIG. 14). Most data, however, are shown as whisker-box plots, where the center point represents the 50%, the ends of the box the […] and 75%, and the “whiskers” the 5% and 95% quantiles (e.g., FIG. 11). Statistical comparisons of pseudopod lengths for different treatments were done by standard non-parametric techniques (Wilcoxon Rank Sum or Kruskal-Wallis Tests), as judged appropriate. Polynomial curve fittings were done by standard least-squares techniques. Statistical analyses and graphing were done with the use of SAS procedures: Reg, Phreg, Nparlway and Plot (SAS institute Inc., Cary, N.C.).

The test system of experiment [5] is MAT-Lu cells. The experiment is described as follows: Boyden chamber motility assay, MAT-Lu cells. It counts as cell-based, rat. Particulars: for Mat-Lu cells crossing filter in % of control +/− SEM: 4 hr, thrombin 200 nM, CDC 126 nM. Here is the method:
Boyden Chamber Motility Assays. Disposable transwells (Coming Costar, Cambridge, Mass.) of 6.5 mm diameter and 8 μm pore size were coated with 5 μg/ml laminin on both sides. The membranes were washed twice with Hank's balanced salt solution (HBSS) and then pre-incubated with growth medium containing 10% fetal bovine serum. Trypsinized cells (5×10^4) were plated into the upper well. After 1 hour the upper chamber was washed twice with HBSS, filled with serum-free medium and moved to a new lower chamber, also filled with serum-free medium, with or without thrombin and/or 0.75 nM insulin-like growth factor-1 (IGF-1). After incubation for 4 hrs, cells on the membrane were fixed and stained with a Diff-Quick kit (Baxter Scientific Products). Cells on the upper side were scraped off, the membranes were removed, mounted onto microscope slides and analyzed. Each filter was scanned twice at right angles under the light microscope with a 16×phase contrast objective lens. A continuous series of 20 frames for each filter was digitized using a high-resolution CCD camera (Kodak) and stored in a Power Macintosh computer. The two most peripheral pairs of frames from each scan were deleted so that 12 frames were analyzed for each filter. Cells that had crossed the membrane were counted and tabulated. The sum of the cells counted in the twelve frames was an individual data point.

The next experiment has as its target protein kinase C. Particulars: Kobayashi et al. 1989; cited from earlier work.

Take `N#CC(=Cc1ccc(O)c(O)c1)C(=O)OCC=Cc1ccccc1` [CDC, cinnamyl-3,4-dihydroxy-α-cyanocinnamate]: in the experiment with 12-LOX [1], the IC50 was 63 nM. The “effect of inhibitor on thrombin-stimulated HETE production from AA” value with 12-Lox [2] (3H-AA substrate) is “strongly inhibited”. The “effect on thrombin-stimulated HETE levels” value with 12-Lox [2] (14C-AA-PC substrate, CDC 0.156 μM) is given as “reduces thrombin-stimulated HETE levels to below control”. The “effect of inhibitor on thrombin-stimulated MARCKS and GAP43 phosphorylation” value with protein kinase C (PKC) is “blocks phosphorylation”. Besides, in experiment [3] (12(S)-HETE 10^−7M), the “effect of CDC pretreatment on 12(S)-HETE-induced collapse” value is given as “is not affected”. For the same compound, the “effect of inhibitor pretreatment on thrombin- or TRAP-induced growth cone collapse” value in experiment [3] (CDC 10 μM, indomethacin 25 μM, pretreatment 30-45 min) was “inhibits the thrombin effect on growth cones; also recorded: partially inhibits collapse; also recorded: almost complete inhibition of this effect”. Besides, in the experiment on MAT-Lu cells [4] (15 min pretreatment, indomethacin 10 ηm, NDGA 25 μM, CDC 63 and 126 nM), the “effect of inhibitor pretreatment on AA-induced pseudopod shortening” value is recorded as “blocked the AA effect completely; also recorded: reversed the AA effect; also recorded: reversed to control levels”. For the same compound, in the experiment on MAT-Lu cells [4] (typically 15 min exposure), the “effect of agent alone on pseudopod length” value is given as “seemed to cause pseudopod elongation”. Besides, the “effect of LOX inhibitor on thrombin inhibition of migration” value with MAT-Lu cells [5] (CDC with thrombin, Table 1) is “reverses the effect of thrombin”. Besides, the “Mat-Lu cells crossing filter in % of control +/− SEM” value with MAT-Lu cells [5] (Control column (no IGF-1)) is reported as 97.5 +/− 11.0 % of control; with MAT-Lu cells [5] (IGF-1 (0.75 nM)), 118 +/− 10.4 % of control.

calphostin C: the “effect of inhibitor on thrombin-stimulated MARCKS and GAP43 phosphorylation” value in the experiment with protein kinase C (PKC) is recorded as “blocks phosphorylation”. Besides, the IC50 at protein kinase C is 50 nM. Further, in the experiment on MAT-Lu cells [4] (12(S)-HETE 10^−10M, calphostin 50 and 100 nM, 15 min pretreatment), the “effect of PKC inhibitor pretreatment on 12(S)-HETE-triggered pseudopod withdrawal” value is “blocks pseudopod retraction; also recorded: completely inhibited pseudopod withdrawal”.
